“Also recorded” adds a separate entry of the source.
Experiments:
[1] = molecular target: T1, S1R (Rattus norvegicus, UniProt Q9R0C9); conditions: statement in the introduction; cited from earlier work
[2] = molecular target: T2, S2R (Rattus norvegicus, UniProt Q5U3Y7); test: S2R radioligand binding assay, [3H]DTG with (+)-pentazocine as S1R masking agent, liver homogenates; design: species or system male Sprague-Dawley rats; conditions: read-out: Ki (nM) ± SD S2R
T2 construct: from tissue; host or cells: rat liver homogenate (male Sprague-Dawley)
T2 sequence (Q5U3Y7 1-176): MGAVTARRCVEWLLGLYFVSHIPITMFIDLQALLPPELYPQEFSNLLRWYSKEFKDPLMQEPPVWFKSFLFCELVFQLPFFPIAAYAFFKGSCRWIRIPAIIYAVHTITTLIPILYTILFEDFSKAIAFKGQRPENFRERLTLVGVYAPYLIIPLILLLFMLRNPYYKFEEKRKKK
Protocol: (§1) The Ki-values were calculated with the program GraphPad Prism 7.0 (GraphPad Software, San Diego, California). The Ki-values are given as mean value ± SD from at least two independent experiments performed in duplicate.

[3] = molecular target: T1, S1R; test: S1R radioligand binding assay, [3H](+)-pentazocine, liver homogenates; design: from tissue; host or cells: rat liver homogenate (male Sprague-Dawley); species or system male Sprague-Dawley rats; conditions: for KiS2R/KiS1R (preference for S1R over S2R): ratio of S2R Ki to S1R Ki; for Ki: read-out: Ki (nM) ± SD S1R
Protocol: as §1

[4] = molecular target: T1, S1R; test: S1R functional assay: S1R radioligand binding with or without phenytoin; design: incubating 200 μL of membrane preparation with 50 μL of 20 nM; from tissue; host or cells: membrane preparation; conditions: for ratio Ki (nM) control/+ phenythoin: >1 agonist, ≤1 antagonist; for S1R functional profile in vitro (phenytoin assay): concluded from Ki ratio control/with phenytoin
Protocol: In order to further asses the functional profile of compounds 4b, 5b, and 8f, the well-established phenytoin-based functional assay was carried out.[52] Previous studies have shown that phenytoin, a low-potent allosteric modulator for the S1R, differentially modulates the affinity of S1R ligands depending on their agonist versus antagonist functionality.
The functionality of compounds 4b, 5b, and 8f on S1R was determined using the same radiolabeled binding assay for the S1R in the presence of phenytoin. […] The final volume was 0.5 mL.

[5] = test system: capsaicin-induced mechanical hypersensitivity in mice; test: Capsaicin-induced secondary mechanical hypersensitivity (allodynia); format: in vivo, female CD1 mice; conditions: for S1R functional profile in vivo: concluded from the capsaicin model; for antiallodynic effect, compound administered alone: 30 min before capsaicin 1 μg i.pl., paw withdrawal latency at 0.5 g force, 4b 5–20 mg/kg, PRE-084 32 mg/kg
Protocol: We used capsaicin-induced secondary hypersensitivity (allodynia) as a pain model. It has been described that the increase in mechanical sensitivity in the area surrounding capsaicin injection (area of secondary allodynia) is due to central sensitization, which is a relevant process for chronic pain development and maintenance.[48]
Experiments were performed in female CD1 mice (Charles River, Barcelona, Spain) weighing 25–30 g. The mice were acclimated in our animal facilities for at least 1 week before testing and housed in a room under controlled environmental conditions: 12/12 h day/night cycle, air replacement every 20 min, and regulated temperature (22 ± 2 °C). The animals were fed a standard laboratory diet (Harlan Teklad Research Diet, Madison, Wisconsin) and tap water ad libitum until the beginning of the experiments. Testing was always performed from 9.00 to 15.00 h and randomly throughout the oestrous cycle. Animal care was made in accordance with institutional (Research Ethics Committee of the University of Granada, Spain), regional (Junta de Andalucía, Spain), and international standards (European Communities Council Directive 2010/63).
As selective S1R drugs, we used the S1R antagonist BD-1063 (1-[2-(3,4-dichlorophenyl)ethyl]-4-methylpiperazine dihydrochloride) and the S1R agonist PRE-084 (2-(4-morpholinethyl)-1-phenyl cyclohexane carboxylate hydrochloride) (both provided by Tocris Cookson, Bristol, U.K.).[57] The standard or experimental compounds were dissolved in 5% DMSO (Merck KGaA, Darmstadt, Germany) in physiological sterile saline (0.9% NaCl). They were prepared immediately before the start of the experiments and injected s.c. in a volume of 5 mL/kg into the interscapular area.
To test for the antiallodynic effects of BD-1063, 4b, 5b, or 8f, they were administered 30 min before the injection of capsaicin, used as the chemical algogen. To test the effects of PRE-084 or 4b on the antiallodynia induced by BD-1063, 8f, or 5b, the former were administered 5 min before the latter. When the effect of the association of several drugs was assessed, each injection was performed in different areas of the interscapular zone to avoid mixture of the drug solutions and any physicochemical interaction between them.
Capsaicin (Sigma-Aldrich Química S.A.) was dissolved in 1% DMSO in physiological sterile saline to a concentration of 0.05 μg/μL (i.e., 1 μg per mouse). Capsaicin solution was injected intraplantarly (i.pl.) into the right hind paw proximate to the heel, in a volume of 20 μL using a 1710 TLL Hamilton microsyringe (Teknokroma, Barcelona, Spain) with a 30^1/2-gauge needle. Control animals were injected with the same volume of the vehicle of capsaicin.
Animals were placed for 2 h in individual black-walled test compartments, which were situated on an elevated mesh-bottom platform with a 0.5-cm^2 grid to provide access to the ventral surface of the hind paws. Punctate mechanical stimulation was applied with a Dynamic Plantar Aesthesiometer (Ugo Basile, Varese, Italy) 15 min after capsaicin or saline administration (i.e., 45 min after the injection of the experimental drug). Briefly, a nonflexible filament (0.5 mm diameter) was electronically driven into the ventral side of the right hind paw (which was previously injected with capsaicin or vehicle) at least 5 mm away from the site of the injection toward the fingers. The intensity of the stimulation was fixed at 0.5 g force, as described previously.[49],[50] When a paw withdrawal response occurred, the stimulus was automatically terminated and the response latency was recorded. The filament was applied three times at intervals of 0.5 min, and the mean value of the three trials was considered the withdrawal latency time of the animal.

[6] = with phenytoin (20 μL of 25 mM in 0.5 mL), 120 min at 37 °C, read-out: Ki (nM) + phenythoin
[7] = without phenytoin, read-out: Ki (nM) control

T1 sequence (Q9R0C9 whole entry): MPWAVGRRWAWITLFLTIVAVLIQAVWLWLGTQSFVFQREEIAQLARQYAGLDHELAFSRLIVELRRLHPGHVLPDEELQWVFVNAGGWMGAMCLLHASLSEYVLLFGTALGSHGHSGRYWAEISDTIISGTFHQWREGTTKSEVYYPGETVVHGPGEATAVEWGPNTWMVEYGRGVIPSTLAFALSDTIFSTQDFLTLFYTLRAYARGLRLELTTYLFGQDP

| SMILES | fold greater affinity for S1R than for D2 [1] [fold] | Ki [2] [nM] | KiS2R/KiS1R (preference for S1R over S2R) [3] | Ki [3] [nM] | ratio Ki (nM) control/+ phenythoin [4] | S1R functional profile in vitro (phenytoin assay) [4] | Ki [4, 6] [nM] | Ki [4, 7] [nM] | antiallodynic effect when associated with the S1R agonist PRE-084 ([5]; PRE-084 32 mg/kg s.c. 5 min before, BD-1063 40 mg/kg, 8f and 5b 20 mg/kg s.c.) | S1R functional profile in vivo [5] | antiallodynic effect, compound administered alone ([5]; s.c.) | dose reaching full reversal of mechanical hypersensitivity (maximum antiallodynic effect) ([5]; s.c., capsaicin 1 μg i.pl., mice) [mg/kg] | effect on the antiallodynic effect of BD-1063 ([5]; 4b 2.5–10 mg/kg s.c. associated with BD-1063 40 mg/kg s.c.) |
| --- | --- | --- | --- | --- | --- | --- | --- | --- | --- | --- | --- | --- | --- |
| CCCN1CCC(c2cccc(S(C)(=O)=O)c2)CC1 [Pridopidine] | 100 |  |  |  |  |  |  |  |  |  |  |  |  |
| c1ccc(CCCN2CCCC3CN(Cc4ccccc4)CC32)cc1 (stereo not shown) [8f, 6-Benzyl-1-(3-phenylpropyl)octahydro-1H-pyrrolo[3,4-b]pyridine] |  | 165 ± 36 | 16.5 | 10 ± 1.6 | 0.8 | antagonists for the S1R | 12 | 9.6 | abolish the antiallodynic effect; also recorded: completely reversed their antiallodynic action | S1R antagonistic in vivo effect | mimicked the effect of the known S1R antagonist | 20 |  |
| c1ccc(CCN2CC3(CCN(Cc4ccccc4)CC3)C2)cc1 [4b, 7-Benzyl-2-phenethyl-2,7-diazaspiro[3.5]nonane] |  | 27 ± 5.3 | ~10 | 2.7 ± 0.3 | 2.6 | agonist profile for the S1R | 1.2 | 3.2 |  | S1R agonistic in vivo effect | completely devoid of antiallodynic effect; also recorded: no antiallodynic effect |  | fully reverse the antiallodynic effect of BD-1063 |
